In ChEMBL document CHEMBL1139062, “Synthesis and biological evaluation of new conformationally biased integrin ligands based on a tetrahydroazoninone scaffold” (Bioorg Med Chem Lett, 2007):

Key:
Type in all cases: protein-complex assay
[1] = molecular target: T1, Integrin alpha-V/beta-3 (Homo sapiens) (UniProt P05106+P06756); test: Displacement of [125I]echistatin from integrin alpha-V-beta-3 receptor at 10 uM
[2] = molecular target: T1, Integrin alpha-V/beta-3 (Homo sapiens); test: Displacement of [125I]echistatin from integrin alpha-V-beta-3 receptor at 1 uM
[3] = molecular target: T2, Integrin alpha-V/beta-5 (Homo sapiens) (UniProt P06756+P18084); test: Displacement of [125I]echistatin from integrin alpha-V-beta-5 receptor at 1000 uM
[4] = molecular target: T1, Integrin alpha-V/beta-3 (Homo sapiens); test: Displacement of [125I]echistatin from integrin alpha-V-beta-3 receptor at 0.1 uM
[5] = molecular target: T2, Integrin alpha-V/beta-5 (Homo sapiens); test: Displacement of [125I]echistatin from integrin alpha-V-beta-5 receptor at […]
[6] = molecular target: T1, Integrin alpha-V/beta-3 (Homo sapiens); test: Displacement of [125I]echistatin from integrin alpha-V-beta-3 receptor at 0.001 uM
[7] = molecular target: T1, Integrin alpha-V/beta-3 (Homo sapiens); test: Displacement of [125I]echistatin from integrin alpha-V-beta-3 receptor at 0.01 uM

Structure (SMILES) | inhibition [1] [%] | inhibition [2] [%] | inhibition [3] [%] | inhibition [4] [%] | inhibition [5] [%] | inhibition [6] [%] | inhibition [7] [%]
CC12CC/C=C\CC(NC1=O)C(=O)N[C@H](CCCNC(=N)N)C(=O)NCC(=O)N[C@@H](CC(=O)O)C(=O)N2 (stereo in doubt; 3b) | 62 | 30 | – | – | – | – | –
N=C(N)NCCC[C@@H]1NC(=O)CNC(=O)[C@@H](CC(=O)O)N[C@H]2CCC[C@H]3CC[C@H](C1=O)N3C2=O | – | – | – | – | – | 85 | –

Next, values leading:

inhibition [1] [%] | inhibition [2] [%] | inhibition [3] [%] | inhibition [4] [%] | inhibition [5] [%] | inhibition [6] [%] | inhibition [7] [%] | Structure (SMILES)
62 | 30 | – | – | – | – | – | CC12CC/C=C\CC(NC1=O)C(=O)N[C@H](CCCNC(=N)N)C(=O)NCC(=O)N[C@@H](CC(=O)O)C(=O)N2 (stereo in doubt; 3a)
52 | 50 | 13 | 53 | 15 | 5 | 15 | CC12CC/C=C\CC(NC1=O)C(=O)N[C@H](CCCNC(=N)N)C(=O)NCC(=O)N[C@@H](CC(=O)O)C(=O)N2Cc1ccccc1 (stereo in doubt; 2b)
48 | 49 | 13 | – | 17 | – | – | CC12CC/C=C\CC(NC1=O)C(=O)N[C@H](CCCNC(=N)N)C(=O)NCC(=O)N[C@@H](CC(=O)O)C(=O)N2Cc1ccccc1 (stereo in doubt; 2a)
